Measurements from US20120129769A1, “ORALLY ADMINISTERABLE PHARMACEUTICAL PREPARATION CONTAINING INSULIN” (priority 2009, published 2012).

Experiments:
[1] = Blood sugar (glucose oxidase method) after intraduodenal insulin-acepramin mixture with standard casein (Example 2); assay type: in vivo, male Wistar rats; details: mean±S.D., n=8
Description: (§1) Data: mean±S.D. with n=8 by group. Statistics: t-test with Bonferroni correction, after ANOVA.

[2] = Blood sugar after oral (feeding probe) insulin with or without ε-amino-caproic acid in starved rats (Example 1); assay type: in vivo, Male Wistar rats; details: n=4
Protocol: (§2) Male Wistar rats (Charles-River Laboratories, Budapest, Hungary) were used for the experiments. Before the experiment the animals were starved for 16 hours. The experiments started between 8 and 9 h in the morning. 2×6 groups were formed in a random manner, with 4 animals by group. The animals were pretreated through a feeding probe according to the followings: group 1: with 1 g/kg of ε-amino-caproic acid; group 2: with 0.1 U/kg of insulin; group 3: with 0.1 U/kg of insulin and 1 g/kg of ε-amino-caproic acid; group 4: with 1.0 U/kg of insulin; group 5: with 1.0 U/kg of insulin and 1 g/kg of ε-amino-caproic acid; and group 6: with a solvent.

[3] = Plasma insulin after oral (feeding probe) insulin with or without ε-amino-caproic acid in starved rats (Example 1); assay type: in vivo, Male Wistar rats; details: n=4
Protocol: as §2

[4] = Plasma insulin immunoreactivity (radioimmunoassay) after intraduodenal insulin-acepramin mixture with standard casein (Example 2); details: mean±S.D., n=8
Protocol: Healthy male Wistar rats (230-250 g) were given an ε-amino-caproic acid—human recombinant insulin mixture with standard casein intraduodenally. The endpoint of the measurement was the blood sugar measured with the glucose oxidase method, and the plasma insulin immunoreactivity measured with radioimmunoassay 15 and 60 minutes after the administration of the insulin-acepramin formulation (aqueous suspension).
as §1

α-chymotrypsin = α-chymotrypsin (Bos taurus, UniProt P00766); assay: In vitro stability of insulin in the presence of a protein degrading enzyme (reverse-phase HPLC); assay type: in vitro ADME; details: after 120 minutes; insulin 100 μM, α-chymotrypsin 1.5 μg/10 μl; FIG. 1
Protocol: FIG. 1: Insulin (100 μM; native) stability in the presence of an equivalent quantity of insulin/ε-amino-caproic acid (acepramin, Sigma, MO) in a solution containing α-chymotrypsin (1.5 μg/10 μl).
In vitro stability means the biodegradation of a primitive formulation of the insulin-acepramin mixture in the presence of a protein degrading enzyme, as compared to native insulin (results of reverse-phase HPLC tests).

[5] = 15-minute values, insulin 0.1 IU/kg (combination: + 1 g/kg ε-amino-caproic acid)
[6] = 15-minute values, insulin 1.0 IU/kg (combination: + 1 g/kg ε-amino-caproic acid)
[7] = 60-minute values, insulin 0.1 IU/kg (combination: + 1 g/kg ε-amino-caproic acid)
[8] = 60-minute values, insulin 1.0 IU/kg (combination: + 1 g/kg ε-amino-caproic acid)

Question: With `NCCCCCC(=O)O` [ε-amino-caproic acid, reference compound] as the compound, how does the Blood sugar ([1]; 15th minute, 100 mg/kg ε-amino-caproic acid alone) read?
Answer: The Blood sugar was 6.9 ± 1.41 mmol/L.

Question: And the Blood sugar ([1]; 60th minute, 100 mg/kg ε-amino-caproic acid alone)?
Answer: The Blood sugar was 7.3 ± 0.95 mmol/L.

Question: What about the Blood sugar ([2]; 15-minute values, 1 g/kg ε-amino-caproic acid alone) of the same compound?
Answer: Its Blood sugar is 5.43 ± 0.55 mmol/L.

Question: And the Blood sugar ([2]; 60-minute values, 1 g/kg ε-amino-caproic acid alone)?
Answer: The Blood sugar was 5.37 ± 0.15 mmol/L.

Question: Which results are given for “insulin: biotechnologically produced human recombinant insulin, given alone (native, unformulated)”?
Answer: Blood sugar ([1]; 15th minute, insulin 0.1 IU/kg (combination: + 100 mg/kg Acepramin), standard casein): 7.9 ± 0.92 mmol/L; Blood sugar ([1]; 15th minute, insulin 1.0 IU/kg (combination: + 100 mg/kg ε-amino-caproic acid), standard casein): 7.7 ± 2.31 mmol/L; Blood sugar ([1]; 60th minute, insulin 0.1 IU/kg (combination: + 100 mg/kg ε-amino-caproic acid), standard casein): 7.9 ± 0.83 mmol/L; Blood sugar ([1]; 60th minute, insulin 1.0 IU/kg (combination: + 100 mg/kg ε-amino-caproic acid), standard casein): 6.9 ± 0.62 mmol/L; Blood sugar [2, 5]: 5.96 ± 0.21 mmol/L; Blood sugar [2, 6]: 5.77 ± 0.22 mmol/L; Blood sugar [2, 7]: 4.97 ± 0.40 mmol/L; Blood sugar [2, 8]: 4.67 ± 0.41 mmol/L; Plasma insulin [3, 5]: 10.75 ± 2.21 μU/ml; Plasma insulin [3, 6]: 38.25 ± 6.95 μU/ml; Plasma insulin [3, 7]: 10.8 ± 1.68 μU/ml; Plasma insulin [3, 8]: 23.87 ± 4.05 μU/ml; Plasma insulin ([4]; 15th minute, insulin 0.1 IU/kg (combination: + 100 mg/kg Acepramin)): 14.4 ± 1.51 μU/ml; Plasma insulin ([4]; 15th minute, insulin 1.0 IU/kg (combination: + 100 mg/kg ε-amino-caproic acid)): 27.5 ± 3.95 μU/ml; Plasma insulin ([4]; 60th minute, insulin 0.1 IU/kg (combination: + 100 mg/kg ε-amino-caproic acid)): 17.3 ± 2.94 μU/ml; Plasma insulin ([4]; 60th minute, insulin 1.0 IU/kg (combination: + 100 mg/kg ε-amino-caproic acid)): 17.1 ± 2.06 μU/ml; insulin degraded (α-chymotrypsin): more than 80%
